Legend:
[1] = biological target: T1, 5-LOX (Homo sapiens, UniProt P09917); experiment: Fluorometric 5-LOX inhibitor screening kit; type: biochemical; details: for 5-LOX Percent of İnhibition: at 10 µM
T1 construct: purchased MyBioSource
T1 sequence (P09917 1-674): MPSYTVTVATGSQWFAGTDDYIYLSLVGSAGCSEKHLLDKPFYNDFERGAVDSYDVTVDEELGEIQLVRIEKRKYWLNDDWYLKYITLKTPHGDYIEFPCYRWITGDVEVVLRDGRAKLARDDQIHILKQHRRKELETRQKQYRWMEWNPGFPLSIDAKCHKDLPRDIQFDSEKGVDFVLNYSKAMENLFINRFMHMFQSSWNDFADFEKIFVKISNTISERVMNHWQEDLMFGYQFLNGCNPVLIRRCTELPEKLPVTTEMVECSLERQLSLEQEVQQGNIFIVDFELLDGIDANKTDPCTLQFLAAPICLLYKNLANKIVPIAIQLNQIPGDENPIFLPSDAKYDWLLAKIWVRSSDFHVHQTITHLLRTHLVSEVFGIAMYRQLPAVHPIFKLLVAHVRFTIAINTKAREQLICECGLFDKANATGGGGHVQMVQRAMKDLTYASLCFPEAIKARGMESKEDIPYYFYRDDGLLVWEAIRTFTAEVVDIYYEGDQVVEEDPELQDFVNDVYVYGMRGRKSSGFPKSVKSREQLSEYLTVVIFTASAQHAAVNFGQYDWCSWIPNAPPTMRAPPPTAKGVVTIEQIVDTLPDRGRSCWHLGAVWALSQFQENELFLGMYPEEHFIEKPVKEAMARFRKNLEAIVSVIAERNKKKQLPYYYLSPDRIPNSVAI
Procedure: COX-1 and COX-2 inhibitory activities were tested using fluorometric COX-1 and COX-2 inhibitor screening kits (Abcam, United Kingdom), and the 5-LOX inhibitory activity was tested using a fluorometric 5-LOX inhibitor screening kit (MyBioSource, USA). These assays are based on the fluorometric detection of Prostaglandin G2 (a product generated by the COX enzyme) or on the fluorometric detection of the intermediate generated by the 5-LOX enzyme. The experiments were conducted in accordance with the manufacturers’ instructions.
For the determination of 5-LOX inhibitory activity, tested compounds were dissolved in DMSO (5 mM stock solution) and then diluted with the same solvent to obtain the test solutions. Test solutions were added to wells in an amount of 2 µL in the final 100 µL reaction volume. […] EC, SC, IC, and all test solutions were analyzed in triplicate.

[2] = tested on: MIA PaCa-2 tumor spheroids; experiment: 3D spheroid formation/growth assay; type: cell-based, human; parameters: Spheroid Diameter Day 0 / Spheroid Diameter Day 9: unit not given here; details: for Spheroid Diameter Day 0: Day 0 (baseline)
Procedure: (§1) For the preliminary assessment of anticancer activity in a 2D cell culture system, an MIA PaCa-2 human pancreas epithelial carcinoma (CRL-1420™) cell line (ATCC, Manassas, VA, USA) was cultured in Dulbecco’s Modified Eagle Medium with 10% fetal bovine serum (FBS, v/v) (Gibco, Billings, MT, USA) and supplemented with 1% antibiotics (10,000 μg/mL streptomycin and 10,000 U/mL penicillin) (Gibco, Billings, MT, USA) at 37 °C in a humidified 5% CO2 atmosphere. For the in vitro modeling of the tumor microenvironment, compounds were also tested in a 3D spheroid test system. For this purpose, the MIA PaCa-2 human pancreas epithelial carcinoma (CRL-1420™) cell line and human dermal fibroblast cell line HDF (PCS-201-012) cells were used.
For 3D spheroid formation, the MIA PaCa-2 cells (PC cell line) and HDF cells were used according to the 3D Bioprinting method. To better simulate the tumor microenvironment, PC cells were mixed (1:1) with human fibroblasts. Briefly, the MIA PaCa-2 cells and human fibroblasts at 70–80% confluency were added to a 6-well plate and incubated with biocompatible NanoShuttle TM-PL (Bioprinting Kit, Greiner Bio-One, Germany) overnight at 37 °C in a humidified 5% CO2 atmosphere. After the nanoparticles were taken up by the cells, they were resuspended and seeded into an ultra-low attachment 96-well plate at a volume of 100 μL (2000 PC cells and 2000 human fibroblasts per well) volume. The plate was placed on a magnetic drive and incubated at 37 °C in a humidified 5% CO2 atmosphere until spheroids were formed. After two days of incubation, the spheroids were photographed using light microscopy (Carl Zeiss Primo Vert, Germany). Fresh medium containing 0.1, 1, 10, and 100 µM of tested compound was added to the wells. Photos were taken every 72 h, and the medium was replaced every 72 h. The effect of the tested compounds in 3D PC cell cultures was examined by measuring the size change of spheroids using ImageJ software (ImageJ 2.0 software, USA).

[3] = biological target: T2, COX-2 (Homo sapiens, UniProt P35354); experiment: Fluorometric COX-2 inhibitor screening kit; details: at 10 µM
T2 sequence (P35354 18-604): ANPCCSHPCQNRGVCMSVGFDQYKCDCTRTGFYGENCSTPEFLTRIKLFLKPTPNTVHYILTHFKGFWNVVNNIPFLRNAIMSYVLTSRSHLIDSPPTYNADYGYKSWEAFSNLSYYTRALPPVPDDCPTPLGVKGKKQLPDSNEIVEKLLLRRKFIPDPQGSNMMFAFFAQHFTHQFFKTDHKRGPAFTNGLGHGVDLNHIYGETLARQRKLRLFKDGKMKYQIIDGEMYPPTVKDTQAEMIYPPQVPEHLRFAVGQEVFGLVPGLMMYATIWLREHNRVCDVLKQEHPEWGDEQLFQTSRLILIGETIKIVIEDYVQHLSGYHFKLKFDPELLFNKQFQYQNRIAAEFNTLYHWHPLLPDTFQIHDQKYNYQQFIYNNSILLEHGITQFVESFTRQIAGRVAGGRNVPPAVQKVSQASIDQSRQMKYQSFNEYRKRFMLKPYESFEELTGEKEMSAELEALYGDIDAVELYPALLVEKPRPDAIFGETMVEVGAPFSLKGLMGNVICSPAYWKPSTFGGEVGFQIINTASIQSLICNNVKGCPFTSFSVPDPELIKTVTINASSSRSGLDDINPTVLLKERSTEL
Procedure: For the determination of COX-1 and COX-2 inhibitory activity, the tested compounds were dissolved in dimethyl sulfoxide (DMSO, 5 mM stock solution) and then diluted with the same solvent to obtain the test solutions. The test solutions were further diluted 5× with COX Assay Buffer (2 µL of test solution: 8 µL COX Assay Buffer). […] Solvent Control (SC) was prepared by adding 2 µL DMSO and 8 µL COX Assay Buffer, while Sample (S) and Enzyme Control (EC) were prepared by adding 10 µL of diluted test solution and COX Assay Buffer, respectively, into assigned wells.

[4] = tested on: MIA PaCa-2 cell line; experiment: 2D anticancer activity, MTT assay; type: cell-based; details: Homo sapiens, 72 h exposure, read-out: IC50 in 2D cultured MIA PaCa-2 cell line
Procedure: as §1
For the assessment of anticancer activity of the compounds, the MIA PaCa-2 cells were plated in 48-well microplates at 1.5 × 10^5 cells/mL and incubated for 24 h at 37 °C in 5% CO2 in accordance with a previously reported method. Following the day, the cells were treated with compounds in various concentrations between 0.1–100 µM dissolved in dimethyl sulfoxide (DMSO) (Sigma Aldrich, St. Louis, MO, USA). Following the 72 h of incubation, culture mediums were discarded and 0.5 mg/mL 3-(4,5-Dimethylthiazol-2-yl)-2,5-Diphenyltetrazolium Bromide (MTT) (Sigma Aldrich, St. Louis, MO, USA) was added to each well for an additional 2 h at 37 °C. After 2 h incubation, the medium was discarded and 100 µL of isopropanol (Sigma Aldrich, St. Louis, MO, USA) was added to the wells to dissolve formazan crystals. The optical density was measured at 570 nm wavelength using a microplate reader (Thermo Fisher Scientific Multiskan, Finland). Doxorubicin hydrochloride (DOX) (European Pharmacopoeia standard, Sigma) was used as internal positive control, and 0.5% DMSO (v/v) was used as negative control. The percentage of cell viability was determined by using the following equation:(1) Viability %=(Absorbancecompound)/(Absorbancenegative control)×100%

SMILES | IC50 [1] | 5-LOX Percent of İnhibition [1] | Spheroid Diameter Day 0 ([2]; 0.1 µM group) | Spheroid Diameter Day 9 ([2]; 0.1 µM) | Spheroid Diameter Day 0 ([2]; 1 µM group) | Spheroid Diameter Day 9 ([2]; 1 µM) | Spheroid Diameter Day 0 ([2]; 10 µM group) | Spheroid Diameter Day 9 ([2]; 10 µM) | Spheroid Diameter Day 0 ([2]; 100 µM group) | Spheroid Diameter Day 9 ([2]; 100 µM) | COX-2 Percent of İnhibition [3] | IC50 [4] | melting point | Spheroid state at the end of the 9 days ([2]; 10–100 µM) | Spheroid state at the end of the 9 days ([2]; 100 µM)
O=C(N/N=C/c1cccc(O)c1)c1cc(-c2ccccc2)c(-c2ccccc2)s1 [7b, N’-[(E)-(3-hydroxyphenyl)methylidene]-4,5-diphenylthiophene-2-carbohydrazide] | 93.2 ± 9.89 µM | 25.77 ± 2.54% | 1193.0 ± 13.1 | 5922.5 ± 39.8 | 1185.5 ± 82.7 | 6461.5 ± 59.6 | 969.3 ± 28.9 | 4192.0 ± 44.8 | 644.7 ± 26.9 | 1050.5 ± 18.9 | 24.13 ± 1.55% | 9.09 ± 1.11 µM | 225 °C |  | 
COc1ccc(/C=N/NC(=O)c2cc(-c3ccccc3)c(-c3ccccc3)s2)cc1OC [7g, N’-[(E)-(3,4-dimethoxyphenyl)methylidene]-4,5-diphenylthiophene-2-carbohydrazide] |  | 20.38 ± 1.98% | 1222.5 ± 28.73 | 5969.0 ± 59.6 | 985.5 ± 65.7 | 3318.0 ± 35.4 |  |  |  |  | 11.41 ± 3.40% | 24.2 ± 3.76 µM | 253 °C | disintegrated | 
COc1ccc(/C=N/NC(=O)c2cc(-c3ccccc3)c(-c3ccccc3)s2)c(OC)c1OC [7h, N’-[(E)-(2,3,4-trimethoxyphenyl)methylidene]-4,5-diphenylthiophene-2-carbohydrazide] |  | 19.87 ± 1.62% | 1125.5 ± 28.9 | 5215 ± 18.3 | 1220.5 ± 31.5 | 6682.5 ± 7.1 | 1192.0 ± 24.7 | 8165.5 ±18.1 | 942.0 ± 58.9 | 7936.5 ± 48.6 | 8.35 ± 0.93% | > 100 µM | 245 °C |  | 
COc1cc(/C=N/NC(=O)c2cc(-c3ccccc3)c(-c3ccccc3)s2)cc(OC)c1OC [7i, N’-[(E)-(3,4,5-trimethoxyphenyl)methylidene]-4,5-diphenylthiophene-2-carbohydrazide] |  | 27.23 ± 0.64% | 1135.5 ± 2.5 | 5523.0 ± 15.2 | 943.0 ± 12.1 | 3539.0 ± 25.4 |  | 2764.0 ± 37.9 | 1023.0 ± 59.5 | 2776.5 ± 85.2 | 13.27 ± 0.73% | > 100 µM | 254 °C |  | 
O=C(N/N=C/c1ccc2c(c1)OCO2)c1cc(-c2ccccc2)c(-c2ccccc2)s1 [7j, N’-[(E)-(2H-1,3-benzodioxol-5-yl)methylidene]-4,5-diphenylthiophene-2-carbohydrazide] |  | 36.10 ± 3.92% | 1112.0 ± 35.4 | 6291.5 ± 45.87 | 998.0 ± 11.5 | 5934.0 ± 96.3 | 1068.0 ± 68.1 | 5217.4 ± 25.7 |  |  | 16.64 ± 1.11% | 9.65 ± 0.22 µM | 262 °C |  | disintegrated
CC(c1cc2ccccc2s1)N(O)C(N)=O (stereo not drawn) [Zileuton, reference compound] |  | 64.85 ± 0.39% |  |  |  |  |  |  |  |  |  |  |  |  | 
